What all share (assay): relative viability (nuclei count vs DMSO), 5 days (fraction); higher = more cells survive
Compound in assay [1]: O=C(O)c1ccc2c(c1)nc(Nc1cccc(Cl)c1)c1ccncc12 [Silmitasertib] + CC1(C)CCC(c2ccc(Cl)cc2)=C(CN2CCN(c3ccc(C(=O)NS(=O)(=O)c4ccc(N[C@H](CCN5CCOCC5)CSc5ccccc5)c(S(=O)(=O)C(F)(F)F)c4)cc3)CC2)C1 [Navitoclax] (partner 0.5 µM)
In outline: (§1)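 Relative viability divides the nuclei count in treated wells by that in vehicle wells. Lung cancer cell lines were seeded in 1536-well plates, dosed by pin tool the next day, and fixed and stained after 5 days in one step with final 0.05% Triton X-100, 1% formaldehyde and 1 ug/ml Hoechst. Dosing was a single drug or a fixed anchor-drug dose plus five library-drug doses (not always all listed) in √10 steps, and values are medians of duplicate plates imaged at 4×.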

Compound in assay [2]: O=C(O)c1ccc2c(c1)nc(Nc1cccc(Cl)c1)c1ccncc12 [Silmitasertib] + CS(=O)(=O)CCNCc1ccc(-c2ccc3ncnc(Nc4ccc(OCc5cccc(F)c5)c(Cl)c4)c3c2)o1 [Lapatinib] (partner 2 µM)
In outline:
as §1

Compound in assay [3]: O=C(O)c1ccc2c(c1)nc(Nc1cccc(Cl)c1)c1ccncc12 [Silmitasertib] + CC(=O)Nc1cccc(-n2c(=O)n(C3CC3)c(=O)c3c(Nc4ccc(I)cc4F)n(C)c(=O)c(C)c32)c1 [Trametinib] (partner 0.02 µM)
The gist of the method: as §1

Compound in assay [4]: O=C(O)c1ccc2c(c1)nc(Nc1cccc(Cl)c1)c1ccncc12 [Silmitasertib] + COc1cc2c(Oc3ccc(NC(=O)C4(C(=O)Nc5ccc(F)cc5)CC4)cc3F)ccnc2cc1OCCCN1CCOCC1 [Foretinib] (partner 0.25 µM)
In outline: as §1

Compound in assay [5]: O=C(O)c1ccc2c(c1)nc(Nc1cccc(Cl)c1)c1ccncc12 [Silmitasertib] + Cc1nc(Nc2ncc(C(=O)Nc3c(C)cccc3Cl)s2)cc(N2CCN(CCO)CC2)n1 [Dasatinib] (partner 0.075 µM)
In outline:
as §1

This is an account of results in the supplement of paper PMC10307832.

Turning to NCI-H460, the relative viability was found to be 1.26 in assay [1] (first compound 0.04 µM); 1.2 in assay [1] (first compound 0.4 µM); 1.3 in assay [1] (first compound 1.265 µM); 1.04 in assay [1] (first compound 4 µM); 1.21 in assay [2] (first compound 0.04 µM); 0.997 in assay [2] (first compound 0.4 µM). For the same cell line, the relative viability was 1.02 in assay [2] (first compound 1.265 µM); 0.305 in assay [2] (first compound 4 µM); 0.201 in assay [3] (first compound 0.04 µM); 0.196 in assay [3] (first compound 0.4 µM); 0.131 in assay [3] (first compound 1.265 µM); 0.0739 in assay [3] (first compound 4 µM). The relative viability in assay [4] (first compound 0.04 µM) was 1.04; in assay [4] (first compound 0.4 µM) it was 0.961; in assay [4] (first compound 1.265 µM) it was 1.07; in assay [4] (first compound 4 µM), 1.15; in assay [5] (first compound 0.04 µM) it was 0.56; in assay [5] (first compound 0.4 µM), 0.445. For the same cell line, the relative viability in assay [5] (first compound 1.265 µM) is 0.44; in assay [5] (first compound 4 µM), 0.448.
In the case of NCI-H520, the relative viability in assay [1] (first compound 0.04 µM) came out at 1.11; in assay [1] (first compound 0.4 µM), 0.917; in assay [1] (first compound 1.265 µM) it was 1.04; in assay [1] (first compound 4 µM) it was 0.863; in assay [2] (first compound 0.04 µM), 0.93; in assay [2] (first compound 0.4 µM), 0.902. Further, the relative viability in assay [2] (first compound 1.265 µM) came out at 0.773; in assay [2] (first compound 4 µM), 0.438; in assay [3] (first compound 0.04 µM), 0.832; in assay [3] (first compound 0.4 µM) it was 0.668; in assay [3] (first compound 1.265 µM), 0.524; in assay [3] (first compound 4 µM), 0.626. For the same cell line, the relative viability in assay [4] (first compound 0.04 µM) is 0.742; in assay [4] (first compound 0.4 µM) it was 1; in assay [4] (first compound 1.265 µM), 0.934; in assay [4] (first compound 4 µM) it was 0.711; in assay [5] (first compound 0.04 µM), 0.274; in assay [5] (first compound 0.4 µM), 0.215. For the same cell line, the relative viability worked out at 0.196 in assay [5] (first compound 1.265 µM) and 0.193 in assay [5] (first compound 4 µM).
Turning to NCI-H596, the relative viability stood at 1.09 in assay [1] (first compound 0.04 µM); 0.882 in assay [1] (first compound 0.4 µM); 0.902 in assay [1] (first compound 1.265 µM); 0.787 in assay [1] (first compound 4 µM); 1.06 in assay [2] (first compound 0.04 µM); 1.04 in assay [2] (first compound 0.4 µM). Further, the relative viability in assay [2] (first compound 1.265 µM) came to 0.833; in assay [2] (first compound 4 µM) it was 0.977; in assay [3] (first compound 0.04 µM) it was 0.765; in assay [3] (first compound 0.4 µM) it was 0.684; in assay [3] (first compound 1.265 µM) it was 0.764; in assay [3] (first compound 4 µM), 0.796. The relative viability in assay [4] (first compound 0.04 µM) was 0.817; in assay [4] (first compound 0.4 µM) it was 0.74; in assay [4] (first compound 1.265 µM), 0.787; in assay [4] (first compound 4 µM) it was 0.871; in assay [5] (first compound 0.04 µM), 0.617; in assay [5] (first compound 0.4 µM) it was 0.563. In addition, the results for the relative viability in assay [5] (first compound 1.265 µM) and in assay [5] (first compound 4 µM) were 0.463 and 0.497, respectively.
For the cell line NCI-H647, the relative viability in assay [1] (first compound 0.04 µM) worked out at 1.05; in assay [1] (first compound 0.4 µM), 0.826; in assay [1] (first compound 1.265 µM), 0.85; in assay [1] (first compound 4 µM), 0.57; in assay [2] (first compound 0.04 µM) it was 1.37; in assay [2] (first compound 0.4 µM), 0.801. Further, the relative viability in assay [2] (first compound 1.265 µM) came to 0.716; in assay [2] (first compound 4 µM), 0.328; in assay [3] (first compound 0.04 µM) it was 0.524; in assay [3] (first compound 0.4 µM), 0.57; in assay [3] (first compound 1.265 µM), 0.399; in assay [3] (first compound 4 µM), 0.431. The relative viability in assay [4] (first compound 0.04 µM) was determined as 1.21; in assay [4] (first compound 0.4 µM) it was 1.04; in assay [4] (first compound 1.265 µM) it was 0.874; in assay [4] (first compound 4 µM) it was 1.06; in assay [5] (first compound 0.04 µM), 0.185; in assay [5] (first compound 0.4 µM) it was 0.266. The relative viability in assay [5] (first compound 1.265 µM) stood at 0.171; in assay [5] (first compound 4 µM), 0.0776.
Regarding NCI-H727, the relative viability is 0.425 in assay [1] (first compound 0.04 µM); 0.343 in assay [1] (first compound 0.4 µM); 0.365 in assay [1] (first compound 1.265 µM); 0.275 in assay [1] (first compound 4 µM); 1.05 in assay [2] (first compound 0.04 µM); 0.608 in assay [2] (first compound 0.4 µM). Besides, the relative viability in assay [2] (first compound 1.265 µM) was found to be 0.855; in assay [2] (first compound 4 µM) it was 0.527; in assay [3] (first compound 0.04 µM), 0.415; in assay [3] (first compound 0.4 µM), 0.338; in assay [3] (first compound 1.265 µM) it was 0.328; in assay [3] (first compound 4 µM) it was 0.348. Besides, the relative viability in assay [4] (first compound 0.04 µM) came out at 0.915; in assay [4] (first compound 0.4 µM), 0.689; in assay [4] (first compound 1.265 µM), 0.695; in assay [4] (first compound 4 µM) it was 1.03; in assay [5] (first compound 0.04 µM) it was 0.326; in assay [5] (first compound 0.4 µM), 0.358. The results for the relative viability in assay [5] (first compound 1.265 µM) and in assay [5] (first compound 4 µM) were 0.272 and 0.379, respectively.
As to NCI-H838, the relative viability stood at 1.36 in assay [1] (first compound 0.04 µM); 1.29 in assay [1] (first compound 1.265 µM); 0.929 in assay [1] (first compound 4 µM); 1.28 in assay [2] (first compound 0.04 µM); 0.753 in assay [2] (first compound 1.265 µM); 0.465 in assay [2] (first compound 4 µM). The relative viability in assay [3] (first compound 0.04 µM) came out at 0.673; in assay [3] (first compound 0.4 µM), 0.489; in assay [3] (first compound 1.265 µM), 0.463; in assay [3] (first compound 4 µM) it was 0.309; in assay [4] (first compound 0.04 µM), 1.16; in assay [4] (first compound 1.265 µM) it was 0.996. The relative viability in assay [4] (first compound 4 µM) turned out to be 0.589; in assay [5] (first compound 0.04 µM), 0.323; in assay [5] (first compound 0.4 µM), 0.325; in assay [5] (first compound 1.265 µM), 0.372; in assay [5] (first compound 4 µM), 0.254.
For NCI-H1355, the relative viability in assay [1] (first compound 0.04 µM) was 1.04; in assay [1] (first compound 1.265 µM), 0.965; in assay [1] (first compound 4 µM), 0.771; in assay [2] (first compound 0.04 µM), 1.08; in assay [2] (first compound 1.265 µM) it was 0.883; in assay [2] (first compound 4 µM) it was 0.726. In addition, the relative viability came to 0.454 in assay [3] (first compound 0.04 µM); 0.393 in assay [3] (first compound 1.265 µM); 0.367 in assay [3] (first compound 4 µM); 0.944 in assay [4] (first compound 0.04 µM); 0.822 in assay [4] (first compound 1.265 µM); 0.916 in assay [4] (first compound 4 µM). The relative viability in assay [5] (first compound 0.04 µM) was 0.766; in assay [5] (first compound 1.265 µM) it was 0.578; in assay [5] (first compound 4 µM) it was 0.485.
